Like-named read-outs stand apart in the source and are kept apart here.
Molecular target: T1, HIF-2α HIS TAG-PASB Domain (Homo sapiens, UniProt Q99814)
T1 construct: 100 nM HIF-2α HIS TAG-PASB Domain
Test: HIF-2α Scintillation Proximity Assay (SPA)
Type: binding
Details: 100 nM HIF-2α HIS TAG-PASB Domain
Procedure: The total assay volume was about 100 μL in the following configuration: 2 μL compound in 100% DMSO, 88 μL buffer with protein and probe and 10 μL of SPA beads. […] The percent inhibition was determined and IC50 values were calculated using the Dotmatics system based on the following equation: % inhibition=[(high control−sample)/(high control−low control)]×100.

[1] = 150 nM Compound 211 probe, read-out: SPA IC50

T1 sequence (Q99814 240-350 limits assumed): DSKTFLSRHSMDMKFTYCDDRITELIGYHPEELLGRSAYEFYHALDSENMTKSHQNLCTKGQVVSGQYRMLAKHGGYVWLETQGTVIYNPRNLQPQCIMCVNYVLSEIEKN

SMILES | IC50 [1] [µM] | IC50 (SPA IC50, 150 nM Compound 211 probe) [µM]
CC(C)(C)OC(=O)N[C@H]1C[C@@H](O)c2c(S(=O)(=O)C(F)(F)F)ccc(Oc3cc(F)cc(C#N)c3)c21 (relative stereo) [Compound 42, tert-butyl(cis-7-(3-cyano-5-fluorophenoxy)-3-hydroxy-4-((trifluoromethyl)sulfonyl)-2,3-dihydro-1H-inden-1-yl)carbamate] | 2.2 | –
N#CN=S(=O)(CF)c1ccc(Oc2cc(F)cc(C#N)c2)c2c1[C@H](O)[C@H](F)C2 (single isomer, unassigned) [Compound 41] | 0.13 | –
N#CN=S(=O)(CF)c1ccc(Oc2cc(F)cc(C#N)c2)c2c1[C@H](O)CC2 (single isomer, unassigned) [Compound 46] | 7.2 | –
N#CN=S(=O)(CF)c1ccc(Oc2cc(F)cc(C#N)c2)c2c1[C@H](O)CC2 (single isomer, unassigned) [Compound 47] | 1.4 | –
N#CN=S(=O)(CF)c1ccc(Oc2cc(F)cc(C#N)c2)c2c1[C@H](O)C(F)(F)C2 (single isomer, unassigned) [Compound 50] | 0.024 | –
N#CN=S(=O)(c1ccc(Oc2cc(F)cc(C#N)c2)c2c1[C@H](O)[C@H](F)C2)C(F)F (single isomer, unassigned) [Compound 61] | 12.4 | –
N#CN=S(=O)(c1ccc(Oc2cc(F)cc(C#N)c2)c2c1[C@H](O)[C@H](F)C2)C(F)F (single isomer, unassigned) [Compound 63] | 16.1 | –
C=CCN=S(=O)(c1ccc(Oc2cc(F)cc(C#N)c2)c2c1[C@H](O)C(F)(F)C2)C(F)(F)F (single isomer, unassigned) [Compound 72] | 0.068 | –
CS(=O)(=NC#N)c1ccc(Oc2cc(F)cc(C#N)c2)c2c1[C@H](O)C(F)(F)[C@H]2F (single isomer, unassigned) [Compound 82] | 2.4 | –
CS(=O)(=NC#N)c1ccc(Oc2cc(F)cc(C#N)c2)c2c1[C@@H](O)C(F)(F)[C@@H]2F (single isomer, unassigned) [Compound 84] | 1.57 | –
CS(=O)(=NC#N)c1ccc(Oc2cc(F)cc(C#N)c2)c2c1[C@@H](O)C(F)(F)[C@@H]2F (single isomer, unassigned) [Compound 86] | 9.9 | –
O=S(=O)(c1ccc(Oc2ccc3[nH]ncc3c2)c2c1C(O)C(F)(F)C2)C(F)(F)F (centres unmarked) [Compound 19, 4-((1H-Indazol-5-yl)oxy)-2,2-difluoro-7-((trifluoromethyl)sulfonyl)-2,3-dihydro-1H-inden-1-ol] | 4.9 | –
C=C1CC(O)c2c(S(C)(=O)=O)ccc(Oc3cc(F)cc(Cl)c3)c21 (centres unmarked) [Compound 44, 4-(3-chloro-5-fluorophenoxy)-3-methylene-7-(methylsulfonyl)-2,3-dihydro-1H-inden-1-ol] | 3.39 | –
O=S(=O)(c1ccc(Oc2cc(F)cc(Cl)c2)c2c1[C@H](O)C[C@@H]2CO)C(F)(F)F [Compound 45, (1R,3S)-4-(3-chloro-5-fluorophenoxy)-3-(hydroxymethyl)-7-((trifluoromethyl)sulfonyl)-2,3-dihydro-1H-inden-1-ol] | 0.73 | –
CS(=O)(=O)N=S(=O)(CF)c1ccc(Oc2cc(F)cc(C#N)c2)c2c1[C@H](O)C(F)(F)C2 (stereo partly drawn) [Compound 48, N—(((S)-7-(3-cyano-5-fluorophenoxy)-2,2-difluoro-3-hydroxy-2,3-dihydro-1H-inden-4-yl)(fluoromethyl)(oxo)-λ^6-sulfanylidene)methanesulfonamide] | 5.6 | –
CS(=O)(=O)c1ccc(Oc2cc(F)cc(C#N)c2)c2c1[C@H](O)CC2(F)F [Compound 52, 3-[(1R)-3,3-difluoro-1-hydroxy-7-methylsulfonyl-indan-4-yl]oxy-5-fluoro-benzonitrile] | 6.5 | –
C[C@]1(F)Cc2c(Oc3cc(F)cc(C#N)c3)ccc(S(C)(=O)=O)c2[C@@H]1O [Compound 62, 3-fluoro-5-(((1S,2S)-2-fluoro-1-hydroxy-2-methyl-7-(methylsulfonyl)-2,3-dihydro-1H-inden-4-yl)oxy)benzonitrile] | 16.1 | –
CS(=O)(=O)c1ccc(Oc2cc(F)cc(C#N)c2)c2c1[C@H](O)C(F)(F)[C@H]2O [Compound 75, 3-[(1S,3S)-2,2-difluoro-1,3-dihydroxy-7-methylsulfonyl-indan-4-yl]oxy-5-fluoro-benzonitrile] | 8.7 | –
CS(=O)(=O)c1ccc(Oc2cncc(Br)c2)c2c1C(=O)C(F)(F)C2 [Compound 87, 4-((5-Bromopyridin-3-yl)oxy)-2,2-difluoro-7-(methylsulfonyl)-2,3-dihydro-1H-inden-1-one] | 5.3 | –
CS(=O)(=O)c1ccc(Oc2cncc(Br)c2)c2c1[C@H](O)[C@H](F)C2 [Compound 90, (1S,2R)-4-((5-Bromopyridin-3-yl)oxy)-2-fluoro-7-(methylsulfonyl)-2,3-dihydro-1H-inden-1-ol] | 1.28 | –
CS(=O)(=O)c1ccc(Oc2cncc(F)c2)c2c1[C@H](O)C(F)(F)[C@H]2F [Compound 94, (1S,3S)-2,2,3-trifluoro-4-((5-fluoropyridin-3-yl)oxy)-7-(methylsulfonyl)-2,3-dihydro-1H-inden-1-ol] | 2.1 | –
CS(=O)(=O)c1ccc(Oc2cncc(Cl)c2)c2c1[C@H](O)C(F)(F)[C@H]2F [Compound 96, (1S,3S)-4-((5-chloropyridin-3-yl)oxy)-2,2,3-trifluoro-7-(methylsulfonyl)-2,3-dihydro-1H-inden-1-ol] | 2.3 | –

The next lines start with the values.

IC50 [1] [µM] | IC50 (SPA IC50, 150 nM Compound 211 probe) [µM] | SMILES
0.059 | – | N=S1(=O)c2ccc(Oc3cc(F)cc(F)c3)c(C(F)F)c2C(O)C1(F)F (single isomer, unassigned) [Compound 163, 4-(difluoromethyl)-5-(3,5-difluorophenoxy)-2,2-difluoro-3-hydroxy-1-imino-2,3-dihydro-1H-1λ^4-benzo[b]thiophene 1-oxide]
3.7 | – | N#Cc1cc(F)cc(Oc2ccc(S(N)(=O)=O)c3c2[C@@H](O)C(F)(F)[C@H]3O)c1 [Compound 101, (1R,3S)-7-(3-cyano-5-fluoro-phenoxy)-2,2-difluoro-1,3-dihydroxy-indane-4-sulfonamide]
23.9 | – | CS(=O)(=O)c1ccc(Oc2cncc(C#N)c2)c2c1[C@H](O)C(F)(F)[C@H]2F [Compound 107, 5-(((1S,3S)-2,2,3-trifluoro-1-hydroxy-7-(methylsulfonyl)-2,3-dihydro-1H-inden-4-yl)oxy)nicotinonitrile]
2.2 | – | N#Cc1cncc(Oc2ccc(S(=O)(=O)CF)c3c2[C@H](F)C(F)(F)[C@H]3O)c1 [Compound 109, 5-(((1S,3S)-2,2,3-trifluoro-7-((fluoromethyl)sulfonyl)-1-hydroxy-2,3-dihydro-1H-inden-4-yl)oxy)nicotinonitrile]
4.4 | – | O=S1(=O)CCc2c1ccc(Oc1cc(F)cc(Cl)c1)c2Br [Compound 114, 4-Bromo-5-(3-chloro-5-fluorophenoxy)-2,3-dihydrobenzo[b]thiophene 1,1-dioxide]
4.9 | – | N#Cc1c(Oc2cc(F)cc(Cl)c2)ccc2c1CCS2(=O)=O [Compound 115, 5-(3-Chloro-5-fluorophenoxy)-2,3-dihydrobenzo[b]thiophene-4-carbonitrile 1,1-dioxide]
1.4 | – | O=C1c2c(ccc(Oc3cc(F)cc(Cl)c3)c2Br)S(=O)(=O)C1(F)F [Compound 118, 4-Bromo-5-(3-chloro-5-fluorophenoxy)-2,2-difluorobenzo[b]thiophen-3(2H)-one 1,1-dioxide]
– | 1.88 | O=S1(=O)c2ccc(Oc3cc(F)cc(Cl)c3)cc2C(O)C1(F)F (centres unmarked) [Compound 126, 5-(3-Chloro-5-fluorophenoxy)-2,2-difluoro-3-hydroxy-2,3-dihydrobenzo[b]thiophene 1,1-dioxide]
1.5 | – | NC1c2c(ccc(Oc3cc(F)cc(F)c3)c2C(F)F)S(=O)(=O)C1F (centres unmarked) [Compound 130, 3-amino-4-(difluoromethyl)-5-(3,5-difluorophenoxy)-2-fluoro-2,3-dihydrobenzo[b]thiophene 1,1-dioxide]
5.8 | – | N#Cc1cc(F)cc(Oc2ccc3c(c2C(F)F)C(=N)C(F)S3(=O)=O)c1 (centres unmarked) [Compound 137, 3-((4-(difluoromethyl)-2-fluoro-3-imino-1,1-dioxido-2,3-dihydrobenzo[b]thiophen-5-yl)oxy)-5-fluorobenzonitrile]
2.89 | – | COCCNC1c2c(ccc(Oc3cc(F)cc(C#N)c3)c2C(F)F)S(=O)(=O)C1(F)F (centres unmarked) [Compound 146, 3-((4-(Difluoromethyl)-2,2-difluoro-3-((2-methoxyethyl)amino)-1,1-dioxido-2,3-dihydrobenzo[b]thiophen-5-yl)oxy)-5-fluorobenzonitrile]
13.4 | – | N#Cc1cc(F)cc(Oc2ccc3c(c2C(F)F)[C@H](N)C(F)(F)S3(=O)=O)c1 [Compound 148, (S)-3-((3-Amino-4-(difluoromethyl)-2,2-difluoro-1,1-dioxido-2,3-dihydrobenzo[b]thiophen-5-yl)oxy)-5-fluorobenzonitrile]
18.7 | – | Cc1cc(C#N)cc(Oc2ccc3c(c2C(F)F)C(=O)C(F)(F)S3(=O)=O)c1 [Compound 155, 3-((4-(Difluoromethyl)-2,2-difluoro-1,1-dioxido-3-oxo-2,3-dihydrobenzo[b]thiophen-5-yl)oxy)-5-methylbenzonitrile]
9.7 | – | N#Cc1cc(F)cc(Oc2ccc3c(c2Br)C(=O)C(F)(F)S3(=O)=O)c1 [Compound 157, 3-((4-Bromo-2,2-difluoro-1,1-dioxido-3-oxo-2,3-dihydrobenzo[b]thiophen-5-yl)oxy)-5-fluorobenzonitrile]
17.4 | – | N#CN=S1(=O)CC(O)c2c1ccc(Oc1cc(F)cc(F)c1)c2C(F)F (centres unmarked) [Compound 159, N-(4-(difluoromethyl)-5-(3,5-difluorophenoxy)-3-hydroxy-1-oxido-2,3-dihydro-1λ^4-benzo[b]thiophen-1-ylidene)cyanamide]
14.2 | – | N=S1(=O)CC(O)c2c1ccc(Oc1cc(F)cc(F)c1)c2C(F)F (centres unmarked) [Compound 160, 4-(Difluoromethyl)-5-(3,5-difluorophenoxy)-3-hydroxy-1-imino-2,3-dihydro-1H-1λ^4-benzo[b]thiophene 1-oxide]
